pIC50: −log10 of the molar value. Like-named read-outs stand apart in the source and are kept apart here.
Columns and labels:
ERα [1] = target: T1, ERα (Homo sapiens, UniProt P03372); assay: Maximal ERα degradation across ER-positive cell panel, In-cell Western, 100 nM; assay type: cell-based; conditions: 24 h, EFM-19, CAMA-1, HCC1500, T47D, BT-474
T1 sequence (P03372 1-595): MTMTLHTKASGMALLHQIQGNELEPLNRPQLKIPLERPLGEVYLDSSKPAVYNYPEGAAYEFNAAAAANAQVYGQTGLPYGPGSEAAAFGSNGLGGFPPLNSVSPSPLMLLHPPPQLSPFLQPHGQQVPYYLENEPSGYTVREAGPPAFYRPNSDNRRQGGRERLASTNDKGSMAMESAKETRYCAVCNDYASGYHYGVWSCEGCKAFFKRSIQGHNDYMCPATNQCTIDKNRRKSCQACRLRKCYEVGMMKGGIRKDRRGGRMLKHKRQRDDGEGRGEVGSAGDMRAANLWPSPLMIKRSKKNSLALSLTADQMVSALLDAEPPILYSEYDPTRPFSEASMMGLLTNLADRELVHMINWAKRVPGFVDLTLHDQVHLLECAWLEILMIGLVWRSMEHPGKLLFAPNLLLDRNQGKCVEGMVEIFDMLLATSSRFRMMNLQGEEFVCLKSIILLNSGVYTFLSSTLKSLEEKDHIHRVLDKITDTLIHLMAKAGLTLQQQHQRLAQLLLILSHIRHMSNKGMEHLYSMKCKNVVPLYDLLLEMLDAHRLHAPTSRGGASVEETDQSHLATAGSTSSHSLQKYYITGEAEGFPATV
Experimental: (§1) MCF7 cells were seeded in a 384-well plate and linear-dilution compounds were administrated in duplicate for each treatment. After incubation for 24 h, Cells in the assay pate were treated as described in methods. ERα levels were quantified by immunofluorescence assay. […] Cells were dispended into 96-well plates and incubated for 24 h with compounds (100 nM) treatment. […] Cells were seeded in 384-well plates and treated with linear-dilution compounds for 7 days of incubation. Cell viability was assessed using CellTiter-Glo. Cell growth inhibition is presented as a percentage of CellTiterGlo activity relative to the vehicle control. […] Then cells in each well were collected and the targeting proteins in lysate supernatant were detected by WB

[2] = tested on: ER + breast cancer cell lines; assay: Proliferation assay across ER-positive cell panel; assay type: cell-based, human; conditions: CAMA-1 and HCC1500, 7 days
Experimental: (§2) Trypsinized cells were dispensed into 384-well plates in culture media and after overnight incubation cells were treated with compounds for 7 days. Cell viability was assessed using CellTiter-Glo (Promega) according to the manufacturer’s protocol and relative luminescence units (RLU) were measured using an Envision Multilabel Reader (Perkin Elmer). […] IC50 and Imax were analyzed with IDBS XLfit.
MCF7 cells were seeded in a 384-well plate and linear-dilution compounds were administrated in duplicate for each treatment. After incubation for 24 h, Cells in the assay pate were treated as described in methods. ERα levels were quantified by immunofluorescence assay. […] Data are given as mean ± SEM. b The maximal ERα degradation across an ER-positive cell panel was evaluated in an In-cell Western assay. Cells were dispended into 96-well plates and incubated for 24 h with compounds (100 nM) treatment. […] Cells were seeded in 384-well plates and treated with linear-dilution compounds for 7 days of incubation. Cell viability was assessed using CellTiter-Glo. Cell growth inhibition is presented as a percentage of CellTiterGlo activity relative to the vehicle control. […] WT (e) and ER. Y537S cells (f). […] Then cells in each well were collected and the targeting proteins in lysate supernatant were detected by WB

breast cancer = tested on: breast cancer; design: method as in PMID 28149048; conditions: cited from earlier work
uterine tissue = assay: Assessment of uterotropic activity in juvenile rats; assay type: in vivo, rat; conditions: juvenile SD rats, oral QD x 3 days; tamoxifen 60 mg/kg, SCR-6852 10 mg/kg; vs vehicle
Experimental: Twenty-four hours after the final dose, all animals were euthanized. Body weights and wet uterine weights were recorded for each animal. Fresh uterine tissue from each rat was fixed in 4% paraformaldehyde, dehydrated by HistoCore PEARL (Leica), and embedded by HistoCore Arcadia H + HistoCore Arcadia C (Leica). Sections were cut at 4 μm and stained with 0.1% toluidine blue O. The thickness of endometrial epithelium was measured using Leica Aperio CS2 with ImageScope × 64 program (Leica). The mean of five measurements per specimen was calculated.
MCF7 with hormone-deprived pre-treatment were administrated ER ligands or not present with 1 nM E2 stimulation for 24 h incubation in a 12-well plate. Total mRNA was isolated from treated cells and sequenced on an Illumina HiSeq X Ten platform. FPKM of each gene was calculated using Cufflinks and Differential expression genes analysis by using the DESeq (2012) R package. Four separate clusters were obtained. […] T47D EFM-19 and HCC1500 cells were grown in RPMI media supplemented with 10% charcoal-stripped FBS for 14 days and then treated with ER antagonist (1 μM) or DMSO in the presence E2 (1nM) stimulation for 24 h before RNA isolation and gene expression analysis as described in methods. […] Endometrial height was assessed from the basement membrane to the luminal border (scale bar in green lines: 200 μm), Arrows indicate the uterine epithelium (e).

[3] = Brain distribution study in mice; conditions: oral 10 mg/kg once a day (fulvestrant 250 mg/kg sc once per week), 24 h post last dose
Experimental: The blood and brain tissues were collected at 24 h post the last dose. […] All blood was collected in K2-EDTA tubes and plasma was obtained by centrifuging the blood at 3200 rpm for 10 min at 4 °C and the brain was rinsed with water and blotted to remove superficial meninges. Plasma and brain samples were stored at − 80 °C until LC–MS/MS analysis which was performed on an Acquity UPLC system (Waters, USA) coupled to an AB SCIEX Triple Quad 6500 + System.
Brain conc./plasma conc. was presented as a B/P ratio

[4] = design: method as in PMID 30018387; conditions: cited from earlier work
intracranial tumor = conditions: cited from earlier work
[5] = tested on: ER+ breast cancer, WT or mutant ESR1; design: method as in EMERALD (NCT03778931), ASCO, 2022; conditions: ASCO, 2022, cited from earlier work
[6] = tested on: MCF-7 subcutaneous tumors; assay: MCF-7 subcutaneous xenograft, combination with Palbociclib; assay type: in vivo, mouse; conditions: MCF-7 sc, Palbociclib 40 mg/kg monotherapy
Experimental: Female Balb/c nude mice were used for MCF-7 and T47D tumor subcutaneous xenograft studies. At least one day before tumor cell implantation, estrogen pellets (0.18 mg, 17β-Estradiol, 60-day release, Innovative Research of America, Sarasota, FL, USA) were implanted subcutaneously. Each mouse was subcutaneously injected with 1 × 10^7 MCF-7 (ECACC) or T47D cells in the right flank, and tumor growth was monitored. The long diameter (a) and the short diameter (b) of the tumor were measured using a caliper, and the tumor volume was calculated using the following formula: V = 0.5 × a × b^2. […] Tumor volumes were evaluated twice per week. Treatment tolerability was assessed by body weight measurements and frequent observation for clinical signs of treatment-related adverse effects.
(§3) Statistical and graphical presentations were performed using IDBS XLfit and GraphPad Prism 9. For cell proliferation assays, the IC50 was calculated by fitting a dose–response curve using a nonlinear regression model with a log(inhibitor) vs response curve fit. […] P-values < 0.05 were considered statistically significant.
Cell viability was measured using Cell TiterGlo assay. […] The result of one representative assay from three similar independent experiments is shown.

MCF-7 WT cells = assay: Viability assay (CellTiter-Glo, 7 days), MCF-7 WT; assay type: cell-based, human
Experimental: as §2, §3

ERα [7] = target: T1, ERα; assay: ERα degradation assay, In-Cell Western, MCF-7 WT; assay type: cell-based; design: MCF-7 wild type and Y537S mutant cells were seeded at a density of 5000 cells per well; host or cells: MCF-7; conditions: 24 h
Experimental: MCF-7 wild type and Y537S mutant cells were seeded at a density of 5000 cells per well into flat clear bottom tissue cultured-treated 384-well plates (Greiner) in culture media and after overnight incubation cells were treated with compounds for 24 h. Then plates were fixed with 4% formaldehyde, permeabilized with ice-cold methanol, and blocked with Odyssey Blocking Buffer (LI-COR). The fixed cells were incubated with rabbit anti- ERα antibody (CST#8644S) and mouse anti-GAPDH antibody (Abcam #ab8245), washed and stained with IRDye 800 Goat anti-Rabbit IgG (Licor#926-32211) and IRDye 680 Goat anti-Mouse IgG (Licor#926-68070). ERα levels were quantitated using Sapphire RGBNIR (Azure), the acumen eX3 imaging system. […] IC50 and Emax were analyzed with IDBS XLfit.
as §1
Cells were seeded at a density of 5,000 cells per well into 384-well plates and treated with linear-titration compounds in duplicate for 24 hours. ERα levels were quantified by immunofluorescence assay as described in the method. The detection signals were captured by Odyssey.

[8] = design: method as in PMID 26149830; conditions: mice, 30 mg/kg, approximately 12 h ref 38; cited from earlier work

In the case of `C[C@@H]1Cc2c([nH]c3ccccc23)[C@@H](c2c(F)cc(/C=C/C(=O)O)cc2F)N1CC(C)(C)F` [AZD9496], the “maximal ERα degradation rate across ER + cell lines” value (ERα [1]) was “less potency ERα degradation rate” and the maximal anti-proliferation rate [2] was “lower maximal anti-proliferation rate”.
For `CC/C(=C(\c1ccccc1)c1ccc(OCCN(C)C)cc1)c1ccccc1` [Tamoxifen], the “reduction of annual mortality rate” value (breast cancer) is listed as 31%, the “reduction of breast cancer recurrence” value (breast cancer) is listed as 50% and the endometrial epithelial thickness (uterine tissue) is listed as “significantly increased”. For the same molecule, the “relative uterine wet weight” value (uterine tissue) was “significant increase”.
In the case of `C[C@@H]1Cc2c([nH]c3ccccc23)[C@@H](c2c(F)cc(NC3CN(CCCF)C3)cc2F)N1CC(F)(F)CO` [GDC-9545], the B/P ratio [3] was “less than onefold”.
In the case of `Nc1cc(C(F)(F)F)c(-c2cc(N3CCOCC3)nc(N3CCOCC3)n2)cn1` [Buparlisib], the B/P ratio [4] is given as greater than 1.5.
For `C[C@@H]1Cc2c(ccc3[nH]ncc23)[C@@H](c2ccc(NC3CN(CCCF)C3)cn2)N1CC(F)(F)F` [AZD-9833], the B/P ratio [3] was “less than onefold”.
In the case of `CCNCCc1ccc(CN(CC)c2cc(OC)ccc2[C@@H]2CCc3cc(O)ccc3C2)cc1` [Elacestrant], the “animals survived to the end of the study” value (intracranial tumor; day 54 ref 41) is listed as 43%, the B/P ratio (intracranial tumor; intracranial tumor, according to reported data ref 41) is listed as “about 0.6” and the “PFS rate at 12 months” value ([5]; ESR1 mutation population ref EMERALD (NCT03778931)) is listed as 26.76%. For the same molecule, the “reduction of the risk of disease progression or death” value ([5]; all patients ref EMERALD (NCT03778931)) was 30%, the “PFS rate at 12 months” value ([5]; overall population ref EMERALD (NCT03778931)) was 22.32% and the “reduction of the risk of disease progression or death” value ([5]; patients with ESR1 mutation ref EMERALD (NCT03778931)) was 45%.
Work on `CC(=O)c1c(C)c2cnc(Nc3ccc(N4CCNCC4)cn3)nc2n(C2CCCC2)c1=O` [Palbociclib] yielded a TGI [6] of 66.34%.
With `CC1Cc2cc(B(O)O)ccc2C(c2c(F)cc(NC3CN(CCCF)C3)cc2F)N1CC1(F)CC1` (centres unmarked) [SCR-6515] the pIC50 (MCF-7 WT cells) was 9.54, the “Viability assay Emax [% Ful.]” value (MCF-7 WT cells) was 103.00 % Ful and the “Viability assay Emax [% Veh.]” value (MCF-7 WT cells) was 64.15 % Veh. The DC50 (ERα [7]) was 0.08 nM, the “ERα degradation assay Dmax [% Ful.]” value (ERα [7]) was 97.83 % Ful and the “ERα degradation assay Dmax [% Veh.]” value (ERα [7]) was 66.81 % Veh.
For `CCN1CCN(Cc2ccc(Nc3ncc(F)c(-c4cc(F)c5nc(C)n(C(C)C)c5c4)n3)nc2)CC1` [Abemaciclib], the “target engagement ratio (unbound brain concentration to in vitro enzyme IC50)” value [8] is listed as 3.3–14.3.

Source: paper PMC10426190 (Breast Cancer Research : BCR, 2023)
